Measurements from publication PMC8536124 (International Journal of Molecular Sciences, 2021).

How the values were obtained:
Assay in all cases: NCI-60 screening (SRB)
Type in all cases: cell-based, human
EKVX = conditions: five-dose
UO-31 = conditions: five-dose
NCI/ADR-RES = conditions: five-dose
HL-60(TB) = test system: HL-60(TB)
KM12 = conditions: five-dose
A498 = conditions: A498, five-dose
OVCAR-4 = conditions: five-dose
IGROV1 = test system: IGROV1
HS 578T = conditions: five-dose
TK-10 = conditions: five-dose
HT29 = test system: HT29
T-47D = conditions: five-dose
NCI-H522 = conditions: five-dose
SK-MEL-5 = conditions: SK-MEL-5, five-dose
RXF 393 = conditions: five-dose
MALME-3M = conditions: MALME-3M, five-dose
HOP-92 = conditions: five-dose
NCI-H23 = conditions: five-dose
SF-295 = conditions: five-dose
OVCAR-5 = conditions: five-dose
RPMI-8226 = conditions: five-dose
OVCAR-3 = conditions: five-dose
BT-549 = conditions: five-dose
SF-539 = conditions: SF-539, five-dose
COLO 205 = conditions: five-dose
A549/ATCC = conditions: five-dose
SNB-19 = conditions: five-dose
HOP-62 = conditions: five-dose
HCT-15 = conditions: five-dose
SN12C = conditions: five-dose
[1] = Homo sapiens, read-out: LC50 (the source's name)
[2] = HL-60(TB) (Leukemia), 1 dose 10 µM

CCN1CCN(C(=O)[C@]23CC[C@@H](C)[C@H](C)[C@H]2C2=CC[C@@H]4[C@@]5(C)C/C(=C/c6cccnc6)C(=O)C(C)(C)[C@@H]5CC[C@@]4(C)[C@]2(C)CC3)CC1 [Compound 9, N-(2-{3-Pyridinylidene}-3-oxoursan-12-en-28-oyl)-ethylpiperazine]
GI50 (EKVX; Homo sapiens): 2.17 µM | LC50 (EKVX; Homo sapiens): 61.7 µM | TGI (EKVX): 7.32 µM | GI50 (UO-31; Homo sapiens): 1.36 µM | CC50 (UO-31; [1]): 5.19 µM | TGI (UO-31): 2.65 µM | GI50 (NCI/ADR-RES; Homo sapiens): 1.59 µM | CC50 (NCI/ADR-RES; [1]): 6.91 µM | TGI (NCI/ADR-RES): 3.31 µM | Growth % (HL-60(TB); [2]): −38.20% | cell death (HL-60(TB); [2]): 38.20% | TGI (HL-60(TB); HL-60(TB), five-dose): 8.97 µM | GI50 (HL-60(TB); Homo sapiens, HL-60(TB), five-dose): 2.78 µM | CC50 (HL-60(TB); Homo sapiens, HL-60(TB), five-dose, read-out: LC50 (the source's name)): > 100 µM | GI50 (KM12; Homo sapiens): 1.75 µM | CC50 (KM12; [1]): 7.23 µM | TGI (KM12): 3.56 µM | TGI (A498): 4.05 µM | GI50 (A498; Homo sapiens): 1.9 µM | CC50 (A498; [1]): 8.65 µM | GI50 (OVCAR-4; Homo sapiens): 2.57 µM | CC50 (OVCAR-4; [1]): 36.6 µM | TGI (OVCAR-4): 7.36 µM | GI50 (IGROV1; Homo sapiens, IGROV-1, five-dose): 1.89 µM | CC50 (IGROV1; Homo sapiens, IGROV-1, five-dose, read-out: LC50 (the source's name)): 7.94 µM | TGI (IGROV1; five-dose): 3.87 µM | GI50 (HS 578T; Homo sapiens): 1.91 µM | CC50 (HS 578T; [1]): > 100 µM | TGI (HS 578T): 4.77 µM | GI50 (TK-10; Homo sapiens): 2.87 µM | CC50 (TK-10; [1]): 59.3 µM | TGI (TK-10): 9.40 µM | GI50 (HT29; Homo sapiens, HT-29, five-dose): 1.93 µM | CC50 (HT29; Homo sapiens, HT-29, five-dose, read-out: LC50 (the source's name)): > 100 µM | TGI (HT29; five-dose): 5.36 µM | GI50 (T-47D; Homo sapiens, T47D): 2.79 µM | LC50 (concentration killing 50% of cells) (T-47D; Homo sapiens, T47D): > 100 µM | TGI (T-47D): 13.4 µM | GI50 (NCI-H522; Homo sapiens): 1.66 µM | TGI (NCI-H522): 3.86 µM | GI50 (SK-MEL-5; Homo sapiens): 1.75 µM | CC50 (SK-MEL-5; [1]): 5.63 µM | TGI (SK-MEL-5): 3.14 µM | GI50 (RXF 393; Homo sapiens): 1.45 µM | CC50 (RXF 393; [1]): 5.53 µM | TGI (RXF 393): 2.83 µM | GI50 (MALME-3M; Homo sapiens): 1.4 µM | CC50 (MALME-3M; [1]): 5.39 µM | TGI (MALME-3M): 2.75 µM | GI50 (HOP-92; Homo sapiens): 1.57 µM | CC50 (HOP-92; [1]): 38.8 µM | TGI (HOP-92): 5.73 µM | GI50 (NCI-H23; Homo sapiens): 2.13 µM | CC50 (NCI-H23; [1]): 31.8 µM | TGI (NCI-H23): 5.91 µM | GI50 (SF-295; Homo sapiens): 1.63 µM | CC50 (SF-295; [1]): 5.7 µM | TGI (SF-295): 3.05 µM | GI50 (OVCAR-5; Homo sapiens): 1.54 µM | CC50 (OVCAR-5; [1]): 5.57 µM | TGI (OVCAR-5): 2.93 µM | GI50 (RPMI-8226; Homo sapiens): 2.45 µM | CC50 (RPMI-8226; [1]): > 100 µM | TGI (RPMI-8226): 7.38 µM | GI50 (OVCAR-3; Homo sapiens): 1.65 µM | CC50 (OVCAR-3; [1]): 6.17 µM | TGI (OVCAR-3): 3.19 µM | GI50 (BT-549; Homo sapiens): 1.69 µM | TGI (BT-549): 3.59 µM | GI50 (SF-539; Homo sapiens): 1.66 µM | CC50 (SF-539; [1]): 5.58 µM | TGI (SF-539): 3.05 µM | GI50 (COLO 205; Homo sapiens): 2.19 µM | CC50 (COLO 205; [1]): > 100 µM | TGI (COLO 205): 5.12 µM | GI50 (A549/ATCC; Homo sapiens): 3.15 µM | CC50 (A549/ATCC; [1]): > 100 µM | TGI (A549/ATCC): 16.8 µM | GI50 (SNB-19; Homo sapiens): 1.79 µM | CC50 (SNB-19; [1]): 7.82 µM | TGI (SNB-19): 3.74 µM | GI50 (HOP-62; Homo sapiens): 2.43 µM | LC50 (HOP-62; Homo sapiens): > 100 µM | TGI (HOP-62): 5.86 µM | GI50 (HCT-15; Homo sapiens): 1.66 µM | CC50 (HCT-15; [1]): 6.41 µM | TGI (HCT-15): 3.26 µM | GI50 (SN12C; Homo sapiens): 1.61 µM | CC50 (SN12C; [1]): 5.66 µM | TGI (SN12C): 3.01 µM
